# Read-outs that look alike come from different tables or passages of the source. Non-standard residues stand in square brackets, D forms with d. Residues, ends and D or L forms follow the SMILES beside them. No end group written: not given here. *: point of attachment. Lys(5-FITC)NH2 = NC(=O)[C@H](CCCCNC(=S)Nc1ccc2c(c1)C(=O)OC21c2ccc(O)cc2Oc2cc(O)ccc21)N*; Ala(7-OPO3H2-coumarin-4-yl) = N[C@@H](Cc1cc(=O)oc2cc(OP(=O)(O)O)ccc12)C(=O)O; RhodamineB = CCN(CC)c1ccc2c(-c3ccccc3C(=O)*)c3ccc(=[N+](CC)CC)cc-3oc2c1; 2Nal = N[C@@H](Cc1ccc2ccccc2c1)C(=O)O; d2Nal = N[C@H](Cc1ccc2ccccc2c1)C(=O)O; AEEA = NCCOCCOCC(=O)O
# Columns and labels:
# [1] = test system: SUV2 (vesicles that mimic the negatively charged endosomal membrane of mammalian cells); assay: Fluorescence polarization membrane binding, SUV2
# Source text: (§1) Also discussed herein are the CPP sequences in Table 16. All uptake/delivery efficiencies are in Table 17 are relative to that of cFΦR4 (290-1F, 100%). SUV1 are small unilamellar vesicles that mimic the neutral outer membrane of mammalian cells [45% phosphatidylcholine (PC), 20% phosphatidylethanolamine (PE), 20% sphingomyelin (SM), and 15% cholesterol (CHO)]. SUV2 are small unilamellar vesicles that mimic the negatively charged endosomal membrane of mammalian cells [50% PC, 20% PE, 10% phosphatidylinositol (PI), and 20% bis(monoacylglycerol)phosphate].
# (§2) Measurements were carried out fluorescence polarization using FITC-labeled cyclic peptides against increasing concentrations of vesicles. Experiments were performed at pH 7.4 and 5.5 (pH inside late endosomes).
# [2] = test system: SUV1 (vesicles that mimic the neutral outer membrane of mammalian cells); assay: Fluorescence polarization membrane binding, SUV1
# Source text: as §1, §2
# [3] = test system: cell type (e.g., HeLa cells); assay: Cellular uptake efficiency of cyclic CPPs; assay type: cell-based; conditions: relative to cFΦR4 (290-1F, 100%)
# Description: In particular embodiments, uptake efficiency is determined by comparing (i) the amount of a cyclic cell-penetrating peptide of the invention internalized by a cell type (e.g., HeLa cells) to (ii) the amount of c(FΦRRRRQ) (290-1F) internalized by the same cell type. To measure cellular uptake efficiency, the cell type may be incubated in the presence of a cell-penetrating peptide of the invention for a specified period of time (e.g., 30 minutes, 1 hour, 2 hours, etc.) after which the amount of the cell-penetrating peptide internalized by the cell is quantified. Separately, the same concentration of c(FΦRRRRQ) (290-1F) is incubated in the presence of the cell type over the same period of time, and the amount of the second peptide internalized by the cell is quantified. Quantification can be achieved by fluorescently labeling the cell-penetrating peptide (e.g., with a FTIC dye) and measuring the fluorescence intensity using techniques well-known in the art.
# as §1
# [4] = test system: HEK293 cells; assay: Live-cell confocal microscopy of internalization; assay type: cell-based, human; conditions: for CAP fluorescence in cells (confocal): 5 μM pCAP peptide, 60 min; for Intracellular fluorescence of rhodamine B-labeled peptide: 5 μM peptide, 2 h
# Description: To examine the internalization of rhodamine-labeled peptides, 5×10^4 HEK293 cells were plated in a 35 mm glass-bottomed microwell dish (MatTek). […] The cells were gently washed with DPBS twice and imaged on a Visitech Infinity 3 Hawk 2D-array live cell imaging confocal microscope. To detect the internalization of pCAP-containing peptides, HEK293 cells were similarly plated and incubated with the peptide solution (5 μM) at 37° C. for 60 min. After removal of the medium, the cells were gently washed with DPBS containing sodium pervanadate (1 mM) twice and incubated for 10 min in DPBS containing 5 μM nuclear staining dye DRAQS. The resulting cells were washed with DPBS twice and imaged on a spinning disk confocal microscope (UltraView Vox CSUX1 system). To monitor GFP internalization, 5×10^4 HEK293 cells were seeded in a 35 mm glass-bottomed microwell dish and cultured overnight. Cells were treated with cFΦR4-S-S-GFP (1 μM) at 37° C. for 2 h. After removal of the medium, the cells were incubated in DPBS containing 5 μM DRAQS for 10 min. The cells were washed with DPBS twice and imaged on a Visitech Infinity 3 Hawk 2D-array live cell imaging confocal microscope.
# [5] = test system: HeLa cells; assay: Cytoplasmic delivery of pCAP-containing peptides, flow cytometry; conditions: 10 μM peptide; for Mean fluorescence intensity (MFI) of CAP: 2 h
# [6] = target: T1, Pin1 (Homo sapiens, UniProt Q13526, S16A/Y23A); assay: Pin1 binding by FA (FITC-labeled peptides); conditions: FITC-labeled peptide, FA
# T1 construct: The full-length human S16A/Y23A mutant Pin1 was expressed and purified from E. coli; made in house
# Description: FA experiments were carried out by incubating 100 nM FITC-labeled peptide with varying concentrations of protein in 20 mM HEPES (pH 7.4), 150 mM NaCl, 2 mM magnesium acetate, and 0.1% bovine serum albumin (BSA) for 2 h at room temperature. The FA values were measured on a Molecular Devices Spectramax M5 plate reader, with excitation and emission wavelengths at 485 and 525 nm, respectively. Equilibrium dissociation constants (KD) were determined by plotting the FA values as a function of protein concentration and fitting the curve to the following equation:
# [7] = test system: HeLa cells; assay: Western blot of PML protein level; assay type: cell-based, human; conditions: 0.2-5 μM
# Description: FIGS. 38A, 38B, 38C, and 38D display cellular activity of peptide 37. (FIG. 38A) Cellular uptake of peptides 1, 37, and 46 (5 μM) by HeLa cells as analyzed by flow cytometry. MFI, mean fluorescence intensity; none, untreated cells (no peptide). (FIG. 38B) Anti-proliferative effect of peptides 37, 46, and 47 on HeLa cells as measured by MTT assay. (FIG. 38C) Western blots showing the effect of peptides 1, 37 and 47 on the protein level of PML in HeLa cells. β-Actin was used as loading control. (FIG. 38D) Quantification of western blot results from (FIG. 38C). Data reported were after background subtraction and represent the mean±SD from 3 independent experiments.
# Finally, to ascertain that Pin1 is the molecular target of peptide 37 in vivo, the intracellular protein level of a well-established Pin1 substrate, […] (PML), was examined by western blot analysis. Pin1 negatively regulates the PML level in a phosphorylation-dependent manner and inhibition of Pin1 activity is expected to stabilize PML and increase its intracellular level. […] The effect was already significant at 0.2 μM inhibitor (1.8-fold increase in the PML level) and plateaued at ˜1 μM (3.3-fold increase). Again, bicyclic peptide 47 had no effect under the same conditions, while peptide 1 (the positive control, at 5 μM) increased the PML level by 3.1-fold.
# [8] = test system: HeLa cells; conditions: MTT
# Source text: The effect of peptide 37 on the growth of HeLa cells was examined by using the MTT cell viability assay.
# [9] = pH 5.5, read-out: Membrane Binding KD (mM) SUV2 pH 5.5
# [10] = pH 7.4, read-out: Membrane Binding KD (mM) SUV2 pH 7.4
# [11] = pH 7.4, read-out: Membrane Binding KD (mM) SUV1 pH 7.4
Compound,"Kd [1, 9]","Kd [1, 10]","Kd [2, 11]",Uptake Efficiency (%) [3],CAP fluorescence in cells (confocal) [4],Mean fluorescence intensity (MFI) of CAP [5],further results
"N=C(N)NCCC[C@@H]1NC(=O)[C@H](Cc2ccc3ccccc3c2)NC(=O)[C@@H](Cc2ccccc2)NC(=O)[C@H](CCC(=O)N[C@@H](CCCCNC(=S)Nc2ccc3c(c2)C(=O)OC32c3ccc(O)cc3Oc3cc(O)ccc32)C(N)=O)NC(=O)[C@@H](CCCNC(=N)N)NC(=O)[C@H](CCCNC(=N)N)NC(=O)[C@@H](CCCNC(=N)N)NC1=O [Peptide 290-9F, c(fΦRrRrQ)] (cyclo([dF][2Nal]R[dR]R[dR]E(Lys(5-FITC)NH2)))",0.012 mM,0.033 mM,1.2 mM,602%,,,"Kd ([2]; pH 5.5, read-out: Membrane Binding KD (mM) SUV1 pH 5.5): 0.81 mM"
"N=C(N)NCCC[C@@H]1NC(=O)[C@H](Cc2ccccc2)NC(=O)[C@H](CCCNC(=N)N)NC(=O)[C@@H](CCCNC(=N)N)NC(=O)[C@H](CCC(=O)N[C@@H](CCCCNC(=S)Nc2ccc3c(c2)C(=O)OC32c3ccc(O)cc3Oc3cc(O)ccc32)C(N)=O)NC(=O)[C@H](CCCNC(=N)N)NC(=O)[C@H](Cc2ccc3ccccc3c2)NC1=O [Peptide 290-10F, c(rRFRΦRQ)] (cyclo([dR]RFR[2Nal]RE(Lys(5-FITC)NH2)))",0.17 mM,0.87 mM,1.2 mM,52%,,,
"N=C(N)NCCC[C@@H]1NC(=O)[C@H](Cc2ccc3ccccc3c2)NC(=O)[C@@H](Cc2ccccc2)NC(=O)[C@H](CCC(=O)N[C@@H](CCCCNC(=S)Nc2ccc3c(c2)C(=O)OC32c3ccc(O)cc3Oc3cc(O)ccc32)C(N)=O)NC(=O)[C@H](CCCNC(=N)N)NC(=O)[C@@H](CCCNC(=N)N)NC(=O)[C@H](CCCNC(=N)N)NC(=O)[C@@H](CCCNC(=N)N)NC1=O [Peptide 290-11F, c(fΦRrRrRQ)] (cyclo([2Nal]R[dR]R[dR]RE(Lys(5-FITC)NH2)[dF]))",0.019 mM,0.092 mM,2.7 mM,542%,,,
"N=C(N)NCCC[C@@H]1NC(=O)[C@H](Cc2ccc3ccccc3c2)NC(=O)[C@@H](Cc2ccccc2)NC(=O)[C@H](Cc2ccccc2)NC(=O)[C@H](CCC(=O)N[C@@H](CCCCNC(=S)Nc2ccc3c(c2)C(=O)OC32c3ccc(O)cc3Oc3cc(O)ccc32)C(N)=O)NC(=O)[C@@H](CCCNC(=N)N)NC(=O)[C@H](CCCNC(=N)N)NC(=O)[C@@H](CCCNC(=N)N)NC1=O [Peptide 290-12F, c(FfΦRrRrQ)] (cyclo(F[dF][2Nal]R[dR]R[dR]E(Lys(5-FITC)NH2)))",0.004 mM,0.026 mM,0.8 mM,681%,,,
"N=C(N)NCCC[C@@H]1NC(=O)[C@@H](CCCNC(=N)N)NC(=O)[C@H](CCCNC(=N)N)NC(=O)[C@@H](CCCNC(=N)N)NC(=O)[C@@H](Cc2ccc3ccccc3c2)NC(=O)[C@H](Cc2ccccc2)NC(=O)[C@H](CCC(=O)N[C@@H](CCCCNC(=S)Nc2ccc3c(c2)C(=O)OC32c3ccc(O)cc3Oc3cc(O)ccc32)C(N)=O)NC1=O [Peptide 290-13F, c(FϕrRrRQ)] (cyclo(F[d2Nal][dR]R[dR]RE(Lys(5-FITC)NH2)))",0.04 mM,0.28 mM,0.68 mM,200%,,,
"N=C(N)NCCC[C@@H]1NC(=O)[C@@H](CCCNC(=N)N)NC(=O)[C@H](CCCNC(=N)N)NC(=O)[C@@H](CCCNC(=N)N)NC(=O)[C@@H](Cc2ccc3ccccc3c2)NC(=O)[C@H](Cc2ccccc2)NC(=O)[C@@H](CCC(=O)N[C@@H](CCCCNC(=S)Nc2ccc3c(c2)C(=O)OC32c3ccc(O)cc3Oc3cc(O)ccc32)C(N)=O)NC1=O [Peptide 290-18F, c(FϕrRrRq)] (cyclo(F[d2Nal][dR]R[dR]R[dE](Lys(5-FITC)NH2)))",0.022 mM,0.04 mM,0.75 mM,205%,,,
"Ac-DE(pCap)LI-NH2 (Ac-DE[Ala(7-OPO3H2-coumarin-4-yl)]LI-NH2; SMILES CC[C@H](C)[C@H](NC(=O)[C@H](CC(C)C)NC(=O)[C@H](Cc1cc(=O)oc2cc(OP(=O)(O)O)ccc12)NC(=O)[C@H](CCC(=O)O)NC(=O)[C@H](CC(=O)O)NC(C)=O)C(N)=O) [untagged PCP, reference compound]",,,,,failed to enter cells,30 AU,
"RKKRRQRRR-miniPEG-DE(pCAP)LI (RKKRRQRRR[AEEA]DE[Ala(7-OPO3H2-coumarin-4-yl)]LI) [Tat-PCP, reference compound]",,,,,weak fluorescence,290 AU,
"RQIKIWFQNRRMKWKK-miniPEG-DE(pCAP)LI (RQIKIWFQNRRMKWKKXDEXLI; miniPEG linker; pCAP residue; (17)..(17) 8-amino-3,6-dioxaoctanoic acid; (20)..(20) phosphocoumaryl amino propionic acid) [Antp-PCP, reference compound]",,,,,weak fluorescence,400 AU,
"RRRRRRRRR-miniPEG-DE(pCAP)LI (RRRRRRRRRXDEXLI; miniPEG linker, pCAP residue; (10)..(10) 8-amino-3,6-dioxaoctanoic acid; (13)..(13) phosphocoumaryl amino propionic acid) [Peptide R9-PCP, reference compound]",,,,,weak fluorescence,960 AU,
bicyclo[Tm-(D-Ala-Sar-D-Thr-D-Ala-Nal-Arg-Ala-D-Ala)-Dap-(Phe-Nal-Arg-Arg-Arg-Arg-Dap)]-Lys [Peptide 47],,,,,,,KD (μM) [6]: No; Effect on the PML level [7]: no effect; Effect on cell growth [8]: neither peptide 46 nor 47 had any effect
"cyclo(FΦRRRRQ)-AAAAA-K(Rho) (cyclo(F[2Nal]RRRRQAAAAAK(RhodamineB)); not fully specified (C-terminus, bridges); printed as cyclo(FΦRRRRQ)-AAAAA-K(Rho)) [cFΦR4-A5]",,,,,,,Intracellular fluorescence of rhodamine B-labeled peptide [4]: both punctuate and diffuse fluorescence
"cyclo(FΦRRRRQ)-RRRRR-K(Rho) (cyclo(F[2Nal]RRRRQRRRRRK(RhodamineB)); not fully specified (C-terminus, bridges); printed as cyclo(FΦRRRRQ)-RRRRR-K(Rho)) [cFΦR4-R5]",,,,,,,Intracellular fluorescence of rhodamine B-labeled peptide [4]: both punctuate and diffuse fluorescence
"cyclo(FΦRRRRQ)-miniPEG-DE(pCAP)LI (cyclo(F[2Nal]RRRRQ[AEEA]DE[Ala(7-OPO3H2-coumarin-4-yl)]LI); not fully specified (C-terminus, bridges); printed as cyclo(FΦRRRRQ)-miniPEG-DE(pCAP)LI) [cFΦR4-PCP]",,,,,diffuse blue fluorescence throughout the cell,3510 AU,MFI of CAP in the presence of sodium pervanadate ([5]; PTP inhibitor sodium pervanadate): 70 AU
